Experimental data from US8372799B2, “Reverse protein” (Apeptico Forschung und Entwicklung GmbH, priority 2007, dated 2013).
Where a SMILES comes first, the peptide text is derived from it. Bridges are numbered along the chain shown (N, C = ends).

Legend:
Interleukin-6 (IL-6) = experiment: Determination of inflammatory parameters: Interleukin-6 release in human fresh blood (ELISA); format: cell-based; conditions: for inflammatory proteins such as the inflammation marker Interleukin-6 (IL-6): human immune cells from the blood, protein at a small concentration; for Concentration of Interleukin-6 (average of three measurements): human fresh blood, 24 hours at 37° C.
Experimental: For the examination, human immune cells from the blood are mixed with protein according to the present invention at a small concentration and are incubated in a manner common in laboratories. Subsequently, marker proteins for inflammations are determined by conventional methods.
Fresh human blood has a very sensitive reaction to pro-inflammatory molecules, among other things, with a release of the inflammation marker Interleukin-6 (IL-6). For determining the pro-inflammatory reaction, samples of human fresh blood with different concentrations of the protein comprising amino acid sequence SEQ ID NO:3 were incubated at the following concentrations: 10 μg/ml, 3 μg/ml, 1 μg/ml. After an incubation of 24 hours at 37° C., the inflammation marker Interleukin-6 was quantitatively determined in the solution via ELISA. LPS served as a positive control.

[1] = test system: pulmonary oedema in Wistar rats; experiment: Experimental animal study pulmonary oedema: oxygen content of arterial blood after acid lung rinsing; format: in vivo, rat; conditions: 125 μg protein intratracheal, 180 minutes after lung rinsing, before rinsing = 100%, without protein 20%
Excerpt: For the simulation of an acute lung injury and for the formation of a pulmonary oedema, the lungs of laboratory animals, e.g., mice or rats, can be rinsed several times with an acidified saline solution in a manner common in laboratories (for example, according to Isik F. et al., Eur J Cardiothorac Surg (2005); 28: 301-305). The result is a decrease in lung function. If a protein according to the present invention, e.g., a protein of amino acid sequence SEQ ID NO:1, SEQ ID NO:2 or SEQ ID NO:3, is injected as a fog or in an aqueous solution into the lungs of the laboratory animals, a distinct improvement in the lung function will occur within 3 to 5 hours, as indicated by the increased oxygen content in the arterial blood. Thus, a protein according to the present invention can be used for the treatment of oedemas such as pulmonary oedemas.
Male Wistar rats (weighing from 250 g to 350 g) are anesthetized with Rompun® (0.02 ml/100 g) and Ketavet® (0.1 ml/100 g). The respiration is done with a cycle of […], with an inhalation time of 0.2 seconds and an exhalation time of 0.5 seconds. The body temperature ranges, on average, from 37° C. to 39° C. […]
At intervals of 60 minutes each, arterial blood (0.1 ml) is withdrawn from the animals, and the oxygen content is determined in % relative to the normal value.
The verification of the stimulating effect of a protein according to the present invention, e.g., of a protein comprising amino acid sequence SEQ ID NO:1, SEQ ID NO:2 or SEQ ID NO:3, on the lung function is made via experimental animal studies in which a pulmonary oedema is induced. […] In each case, 5 animals are used for objectifying the measured values.
For the intratracheal inhalation, 125 μg protein are, in each case, dissolved in 150 mM saline solution pH 7.3. The oxygen content of the arterial blood is measured immediately before rinsing the lungs, 60 minutes after rinsing the lungs and 180 minutes after rinsing the lungs.
The oxygen content immediately before rinsing the lungs is determined to be 100%. […]

CC[C@H](C)[C@H](NC(=O)[C@H](C)N)C(=O)N[C@@H](CCCCN)C(=O)N[C@@H](CO)C(=O)N1CCC[C@H]1C(=O)N[C@H]1CSSC[C@@H](C(=O)N2CCC[C@H]2C(=O)N[C@@H](CO)C(=O)N[C@H](C(=O)N[C@@H](Cc2c[nH]cn2)C(=O)N[C@H](C(=O)O)C(C)C)[C@@H](C)O)NC(=O)CNC(=O)CNC(=O)[C@H](CCCCN)NC(=O)[C@H](C)NC(=O)[C@H](CCC(=O)O)NC(=O)[C@H](C)NC(=O)CNC(=O)[C@H](CCC(=O)O)NC(=O)[C@@H]2CCCN2C(=O)[C@H]([C@@H](C)O)NC(=O)[C@H](CCC(=O)O)NC(=O)[C@H](CCCNC(=N)N)NC(=O)[C@H](CCC(N)=O)NC1=O [SEQ ID NO:1] (H-AIKSPCQRETPEGAEAKGGCPSTHV-OH; disulfide 6-20)
inflammatory proteins such as the inflammation marker Interleukin-6 (IL-6) (Interleukin-6 (IL-6)): cannot be detected | oxygen content in the arterial blood [1]: 60%

C[C@@H]1NC(=O)CNC(=O)[C@H](CCC(=O)O)NC(=O)[C@@H]2CCCN2C(=O)[C@H]([C@@H](C)O)NC(=O)[C@H](CCC(=O)O)NC(=O)[C@H](CCCNC(=N)N)NC(=O)[C@H](CCC(N)=O)NC(=O)[C@@H](NC(=O)[C@@H]2CCCN2C(=O)[C@H](CO)NC(=O)[C@@H](N)CCCCN)CSSC[C@@H](C(=O)N2CCC[C@H]2C(=O)N[C@@H](CO)C(=O)O)NC(=O)CNC(=O)CNC(=O)[C@H](CCCCN)NC(=O)[C@H](C)NC(=O)[C@H](CCC(=O)O)NC1=O [SEQ ID NO:2] (H-KSPCQRETPEGAEAKGGCPS-OH; disulfide 4-18)
inflammatory proteins such as the inflammation marker Interleukin-6 (IL-6) (Interleukin-6 (IL-6)): cannot be detected | oxygen content in the arterial blood [1]: 63%

C[C@@H]1NC(=O)CNC(=O)[C@H](CCC(=O)O)NC(=O)[C@@H]2CCCN2C(=O)[C@H]([C@@H](C)O)NC(=O)[C@H](CCC(=O)O)NC(=O)[C@H](CCCNC(=N)N)NC(=O)[C@H](CCC(N)=O)NC(=O)[C@@H](N)CSSC[C@@H](C(=O)O)NC(=O)CNC(=O)CNC(=O)[C@H](CCCCN)NC(=O)[C@H](C)NC(=O)[C@H](CCC(=O)O)NC1=O [SEQ ID NO:3, (NH2)Cys-Gln-Arg-Glu-Thr-Pro-Glu-Gly-Ala-Glu-Ala-Lys-Gly-Gly-Cys(COOH)] (H-CQRETPEGAEAKGGC-OH; disulfide 1-15)
Concentration of Interleukin-6 (average of three measurements) (Interleukin-6 (IL-6); 1 μg/ml): less than 0.5 pg/ml | Concentration of Interleukin-6 (average of three measurements) (Interleukin-6 (IL-6); 10 μg/ml): less than 0.5 pg/ml | Concentration of Interleukin-6 (average of three measurements) (Interleukin-6 (IL-6); 1 nμg/ml): less than 0.5 pg/ml | Concentration of Interleukin-6 (average of three measurements) (Interleukin-6 (IL-6); 3 nμg/ml): less than 0.5 pg/ml | inflammatory proteins such as the inflammation marker Interleukin-6 (IL-6) (Interleukin-6 (IL-6)): cannot be detected | oxygen content in the arterial blood [1]: 70%
